Where two headings read alike, the source gives them in different places.
Tests used:
[1] = system: Key Grass and Sedge Weeds as well as Grass Crops; assay: Post-emergent Test II herbicidal activity (Table 16); assay type: in vivo; conditions: post-emergence, 336 h; for pest or weed control at 35 g/ha: 35 g ai/ha; for pest or weed control at 70 g/ha: 70 g ai/ha; for pest or weed control at 140 g/ha: 140 g ai/ha
Method in brief: (§1)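 Post-emergence spray; seedlings 7-21 d old, 1st-2nd true leaf; 187 L/ha; serial rates 1×-1/16×; solvent blank controls; subirrigated; visual % injury at 14 d.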

[2] = system: Key Broadleaf Weed and Crop Species; assay: Post-emergent Test II herbicidal activity (Table 15); assay type: in vivo; conditions: post-emergence, 336 h, 14 d; for pest or weed control at 35 g/ha: 35 g ai/ha; for pest or weed control at 70 g/ha: 70 g ai/ha; for pest or weed control at 140 g/ha: 140 g ai/ha
Method in brief: as §1

[3] = Cyperus esculentus, yellow nutsedge (Cyperus esculentus), 14 days after application, read-out: Visual Growth Reduction (%) 14 Days After Application CYPES
[4] = Echinochloa crus-galli, barnyardgrass (Echinochloa crus-galli), 14 days after application, read-out: Visual Growth Reduction (%) 14 Days After Application ECHCG
[5] = Oryza sativa, rice (Oryza sativa), 14 days after application, read-out: Visual Growth Reduction (%) 14 Days After Application ORYSA
[6] = Setaria faberi, giant foxtail (Setaria faberi), 14 days after application, read-out: Visual Growth Reduction (%) 14 Days After Application SETFA
[7] = Triticum aestivum, wheat, spring (Triticum aestivum), 14 days after application, read-out: Visual Growth Reduction (%) 14 Days After Application TRZAS
[8] = Zea mays, maize, corn (Zea mays), 14 days after application, read-out: Visual Growth Reduction (%) 14 Days After Application ZEAMX
[9] = Abutilon theophrasti, velvetleaf (Abutilon theophrasti), read-out: Visual Growth Reduction (%) 14 Days After Application, ABUTH
[10] = Amaranthus retroflexus, redroot pigweed (Amaranthus retroflexus), read-out: Visual Growth Reduction (%) 14 Days After Application, AMARE
[11] = Brassica napus, oilseed rape, canola (Brassica napus), read-out: Visual Growth Reduction (%) 14 Days After Application, BRSNN
[12] = Chenopodium album, lambsquarters (Chenopodium album), read-out: Visual Growth Reduction (%) 14 Days After Application, CHEAL
[13] = Euphorbia heterophylla, wild poinsettia (Euphorbia heterophylla), read-out: Visual Growth Reduction (%) 14 Days After Application, EPHHL
[14] = Helianthus annuus, sunflower (Helianthus annuus), read-out: Visual Growth Reduction (%) 14 Days After Application, HELAN

SMILES | pest or weed control at 70 g/ha [1, 3] [%] | pest or weed control at 140 g/ha [1, 3] [%] | pest or weed control at 140 g/ha [1, 4] [%] | pest or weed control at 70 g/ha [1, 5] [%] | pest or weed control at 140 g/ha [1, 5] [%] | pest or weed control at 140 g/ha [1, 6] [%] | pest or weed control at 70 g/ha [1, 7] [%] | pest or weed control at 140 g/ha [1, 7] [%] | pest or weed control at 70 g/ha [1, 8] [%] | pest or weed control at 140 g/ha [1, 8] [%] | pest or weed control at 35 g/ha [2, 9] [%] | pest or weed control at 70 g/ha [2, 9] [%] | pest or weed control at 140 g/ha [2, 9] [%] | pest or weed control at 35 g/ha [2, 10] [%] | pest or weed control at 70 g/ha [2, 10] [%] | pest or weed control at 140 g/ha [2, 10] [%] | pest or weed control at 35 g/ha [2, 11] [%] | pest or weed control at 70 g/ha [2, 11] [%] | pest or weed control at 140 g/ha [2, 11] [%] | pest or weed control at 35 g/ha [2, 12] [%] | other results
COC(=O)c1nc(-c2ccc3cn[nH]c3c2)c(F)c(N)c1Cl [Compound 4.05] | 0 to 29 | 0 to 29 | 85 to 94 | 0 to 29 | 0 to 29 | 95 to 100 | 0 to 29 | 0 to 29 | 60 to 74 | 60 to 74 | 0 to 29 | 0 to 29 | 45 to 59 | 0 to 29 | 95 to 100 | 95 to 100 | 0 to 29 | 0 to 29 | 45 to 59 | 85 to 94 | pest or weed control at 35 g/ha [1, 3]: 0 to 29%; pest or weed control at 35 g/ha [1, 5]: 0 to 29%; pest or weed control at 35 g/ha [1, 7]: 0 to 29%; pest or weed control at 35 g/ha [1, 8]: 0 to 29%; pest or weed control at 70 g/ha [2, 12]: 85 to 94%; pest or weed control at 140 g/ha [2, 12]: 95 to 100%; pest or weed control at 35 g/ha [2, 13]: 60 to 74%; pest or weed control at 70 g/ha [2, 13]: 95 to 100%; pest or weed control at 140 g/ha [2, 13]: 95 to 100%; pest or weed control at 35 g/ha [2, 14]: 60 to 74%; pest or weed control at 70 g/ha [2, 14]: 60 to 74%; pest or weed control at 140 g/ha [2, 14]: 95 to 100%; melting point: 185 to 187 °C
Cc1c(-c2ccc3sccc3c2)nc(C(=O)O)c(Cl)c1N [Compound 3.07] | 0 to 29 | 0 to 29 | 0 to 29 | 0 to 29 | 0 to 29 | 0 to 29 | 0 to 29 | 0 to 29 | 0 to 29 | 0 to 29 | 0 to 29 | 0 to 29 | 0 to 29 | 0 to 29 | 60 to 74 | 75 to 84 | 45 to 59 | 60 to 74 | 60 to 74 | 0 to 29 | pest or weed control at 35 g/ha ([1]; Cyperus esculentus, yellow nutsedge (Cyperus esculentus), 14 d, read-out: Visual Growth Reduction (%) 14 Days After Application, CYPES): 0 to 29%; pest or weed control at 35 g/ha ([1]; Echinochloa crus-galli, barnyardgrass (Echinochloa crus-galli), 14 d, read-out: Visual Growth Reduction (%) 14 Days After Application, ECHCG): 0 to 29%; pest or weed control at 70 g/ha [1, 4]: 0 to 29%; pest or weed control at 35 g/ha ([1]; Oryza sativa, rice (Oryza sativa), 14 d, read-out: Visual Growth Reduction (%) 14 Days After Application, ORYSA): 0 to 29%; pest or weed control at 35 g/ha ([1]; Setaria faberi, giant foxtail (Setaria faberi), 14 d, read-out: Visual Growth Reduction (%) 14 Days After Application, SETFA): 0 to 29%; pest or weed control at 70 g/ha [1, 6]: 0 to 29%; pest or weed control at 35 g/ha ([1]; Triticum aestivum, wheat, spring (Triticum aestivum), 14 d, read-out: Visual Growth Reduction (%) 14 Days After Application, TRZAS): 0 to 29%; pest or weed control at 35 g/ha ([1]; Zea mays, maize, corn (Zea mays), 14 d, read-out: Visual Growth Reduction (%) 14 Days After Application, ZEAMX): 0 to 29%; pest or weed control at 70 g/ha [2, 12]: 0 to 29%; pest or weed control at 140 g/ha [2, 12]: 75 to 84%; pest or weed control at 35 g/ha [2, 13]: 0 to 29%; pest or weed control at 70 g/ha [2, 13]: 0 to 29%; pest or weed control at 140 g/ha [2, 13]: 0 to 29%; pest or weed control at 35 g/ha [2, 14]: 85 to 94%; pest or weed control at 70 g/ha [2, 14]: 85 to 94%; pest or weed control at 140 g/ha [2, 14]: 85 to 94%; melting point: 159 to 165 °C
Nc1c(F)c(-c2ccc3cn[nH]c3c2)nc(C(=O)O)c1Cl [Compound 4.06] | 0 to 29 | 0 to 29 | 75 to 84 | 0 to 29 | 0 to 29 | 45 to 59 | 0 to 29 | 0 to 29 | 0 to 29 | 0 to 29 | 0 to 29 | 0 to 29 | 0 to 29 | 75 to 84 | 95 to 100 | 95 to 100 | 60 to 74 | 75 to 84 | 85 to 94 | 0 to 29 | pest or weed control at 35 g/ha [1, 3]: 0 to 29%; pest or weed control at 35 g/ha [1, 4]: 0 to 29%; pest or weed control at 70 g/ha [1, 4]: 45 to 59%; pest or weed control at 35 g/ha [1, 5]: 0 to 29%; pest or weed control at 35 g/ha [1, 6]: 0 to 29%; pest or weed control at 70 g/ha [1, 6]: 0 to 29%; pest or weed control at 35 g/ha [1, 7]: 0 to 29%; pest or weed control at 35 g/ha [1, 8]: 0 to 29%; pest or weed control at 70 g/ha [2, 12]: 45 to 59%; pest or weed control at 140 g/ha [2, 12]: 95 to 100%; pest or weed control at 35 g/ha [2, 13]: 45 to 59%; pest or weed control at 70 g/ha [2, 13]: 60 to 74%; pest or weed control at 140 g/ha [2, 13]: 85 to 94%; pest or weed control at 35 g/ha [2, 14]: 45 to 59%; pest or weed control at 70 g/ha [2, 14]: 60 to 74%; pest or weed control at 140 g/ha [2, 14]: 75 to 84%; melting point: > 300 °C
